The text below walks through data of patent US20240189408A1, “COMPOSITIONS AND METHODS FOR REDUCING METHANE EMISSIONS IN RUMINANT POPULATIONS” (Arkea Bio Corp., priority 2022, published 2024).

Read-outs that look alike come from different tables or passages of the source.

Data set [1] concerns methane production in ruminants. As to conditions: cited from earlier work.
The test system of a further data set is rumen methanogens. As to conditions: cited from earlier work.
Data set [2] is described as follows: 3-NOP to adsorbent ratio study. As to conditions: 24 hr, HPLC. Type of data set: physicochemical. As for the experimental part: Optimal loading of 3-NOP onto adsorbents was determined by varying ratios of 3-NOP to adsorbent. 3-NOP and adsorbent were speed mixed at 2000 rpm for 1 min at the following ratios by weight: 1:1.5, 1:2, 1:2.5. The adsorbed 3-NOP powder mixture was then placed in distilled water at 1% 3-NOP loading. The solution was allowed to equilibrate for 24 hr and then an aliquot was taken for HPLC to determine the reduction in 3-NOP concentration.

A short description of data set [3]: LNP size and polydispersity by DLS (Malvern Panalytical). The format is physicochemical. As to conditions: mRNA LNPs of Table 18; for PDI: LNP polydispersity; for Z-avg.: LNP size. As for the experimental part:
(§1) To prepare lipid nanoparticles (LNPs), the mRNA stocks were thawed on ice. Nucleic acid concentrations were validated by absorbance at 260 nm using a NanoDrop. The mRNAs were then diluted to a final concentration of 0.35 mg/mL mRNA in Precision Nanosystem's dilution buffer. 10 mL of the dilute mRNAs were loaded into separate Luer lock syringes and all bubbles were removed by gentle tapping. A NanoAssemblr Ignite NxGen Cartridge was loaded into the cartridge slot of the Ignite instrument (FIG. 8A, 801) and one mRNA syringe was attached to the aqueous inlet of the cartridge. 3.3 mL of Genvoy-ILM reagent was loaded into a separate Luer lock syringes and all bubbles were removed by gentle tapping. The Genvoy-ILM syringe was then attached to the organic inlet of the cartridge. LNPs were then generated and collected into a 15 mL conical tube. The process was repeated for the remaining two mRNAs and for a buffer only LNP control (empty). Immediately after LNPs were generated, the samples were loaded into 10K dialysis cartridges, submerged into 1×DPBS (Ca^2+ and Mg^2+-free) to reduce the ethanol concentration to <0.5%. After dialysis the LNPs were recovered from the dialysis cartridges and sterile filtered at 0.2 um. Size and polydispersity (FIG. 8A, 802) were measured using a Malvern Panalytical DLS by diluting 40 uL of LNPs into 360 uL of 1×DPBS. […] Encapsulation efficiency was measured using a RiboGreen assay following Precision Nanosystems recommended protocol using a BioTek Synergy H1 Plate Reader. The resultant encapsulation efficiencies are shown in Table 14, with an average of ˜85%.
(§2) To prepare lipid nanoparticles (LNPs), the mRNA stocks were thawed on ice. Nucleic acid concentrations were validated by absorbance at 260 nm using a NanoDrop. The mRNAs were then diluted to a final concentration of 0.35 mg/mL mRNA in Precision Nanosystem's dilution buffer. 10 mL of the dilute mRNAs were loaded into separate Luer lock syringes and all bubbles were removed by gentle tapping. A NanoAssemblr Ignite NxGen Cartridge was loaded into the cartridge slot of the Ignite instrument and one mRNA syringe was attached to the aqueous inlet of the cartridge. 3.3 mL of Genvoy-ILM reagent was loaded into a separate Luer lock syringes and all bubbles were removed by gentle tapping. The Genvoy-LM syringe was then attached to the organic inlet of the cartridge. LNPs were then generated and collected into a 15 mL conical tube. The process was repeated for the remaining mRNAs and for a buffer only LNP control (empty). Immediately after LNPs were generated, the samples were loaded into 10K dialysis cartridges, submerged into Ix DPBS (Ca^2+ and Mg^2+-free) to reduce the ethanol concentration to <0.5%. After dialysis the LNPs were recovered from the dialysis cartridges and sterile filtered at 0.2 um. Size and polydispersity (FIG. 12 and FIG. 13) were measured using a Malvern Panalytical DLS by diluting 40 uL of LNPs into 360 uL of 1×DPBS. […] Encapsulation efficiency was measured using a RiboGreen assay following Precision Nanosystems recommended protocol using a BioTek Synergy H1 Plate Reader. The resultant encapsulation efficiencies are shown in Table 18, with an average of ˜60%.
(§3) To prepare lipid nanoparticles (LNPs), the mRNA stocks are thawed on ice. Nucleic acid concentrations are validated by absorbance at 260 nm using a NanoDrop. The mRNAs are then diluted to a final concentration of 0.35 mg/mL mRNA in Precision Nanosystem's dilution buffer. 10 mL of the dilute mRNAs are loaded into separate Luer lock syringes and all bubbles are removed by gentle tapping. A NanoAssemblr Ignite NxGen Cartridge is loaded into the cartridge slot of the Ignite instrument and one mRNA syringe is attached to the aqueous inlet of the cartridge. 3.3 mL of Genvoy-ILM reagent is loaded into a separate Luer lock syringes and all bubbles are removed by gentle tapping. The Genvoy-ILM syringe is then attached to the organic inlet of the cartridge. […]

Data set [4] is described as follows: LNP encapsulation efficiency, RiboGreen assay. Type of data set: physicochemical. As to conditions: mRNA LNPs of Table 18. As for the experimental part: as §1, §2, §3
[5] abbreviates: 3-NOP:Adsorbent 1:1.5, distilled water at 1% 3-NOP loading.
The mark [6] stands for this setting: 3-NOP:Adsorbent 1:2, distilled water at 1% 3-NOP loading.
[7] abbreviates: 3-NOP:Adsorbent 1:2.5, distilled water at 1% 3-NOP loading.
[8] abbreviates: beef cattle, fed at […] of DM intake.

As to `O=[N+]([O-])CCO` [2-nitroethanol], in data set [1] (10 mmol/L), the “Addition amount; maximum methane suppression amount” value (“Addition amount” below) was 96.7% (NEOH),.

Take `CC(CO)[N+](=O)[O-]` (stereo not drawn) [2-nitropropanol]: the “lowering of CH4 production” value in the data set on rumen methanogens (steers) was 37%. For the same molecule, the “Addition amount” value in data set [1] (10 mmol/L) is 41.7% (NPOH).

In the case of `N=C(N)NCCC[C@H](N)C(=O)O` [Arginine], the “Average Integrated Area of 3-NOP in solution” value was determined as 2406.0 in data set [2] (setting [5]), 2372.8 in data set [2] (setting [6]) and 2435.2 in data set [2] (setting [7]).

With `ClCBr` [BCM, bromochloromethane], the “toxicity or residues in meat” value in the data set on rumen methanogens (steers fed grain-based diets) is listed as “no signs of toxicity or residues in meat”.

For `O=C(O)/C=C/c1ccc(O)c(O)c1` [Caffeic acid], the “Addition amount” value in data set [1] (12 mM) is 12 mM, Caffeic acid; 37.58%;.

For the molecule `N[C@@H](CCC(=O)O)C(=O)O` [Glutamic acid], the “Average Integrated Area of 3-NOP in solution” value worked out at 2445.9 in data set [2] (setting [5]), 2452.5 in data set [2] (setting [6]) and 2446.3 in data set [2] (setting [7]).

Take `O=C(O)CC(O)C(=O)O` (stereo not drawn) [Malate]: in the data set on rumen methanogens (setting [8]), the “decrease of CH4 production” value is recorded as 16% and the “reduction of CH4 per unit of DM intake” value is reported as 9%.

As to `O=[N+]([O-])O` [Nitrate], the “Addition amount” value in data set [1] (5 mM (Liu et al., 2017)) is on record as 5 mM 43.26%; in data set [1] (5 mmol/L (Wu et al., 2019)) it was 5 mmol/L; 32.92%; in data set [1] (20 mg/g dry matter (Alvarez-Hess et al., 2019)), 20 mg/g dry matter; 21%.

As for `ClC(Cl)Cl` [chloroform], in the data set with rumen methanogens (drenching to cattle), the “duration of substantial inhibition of methanogenesis” value is “up to 32 days”.

Regarding `CC[C@@]1([C@@H]2O[C@@H]([C@H]3O[C@@](O)(CO)[C@H](C)C[C@@H]3C)C[C@@H]2C)CC[C@H]([C@]2(C)CC[C@]3(C[C@H](O)[C@@H](C)[C@@H]([C@@H](C)[C@@H](OC)[C@H](C)C(=O)O)O3)O2)O1` [monensin], in the data set with rumen methanogens (tropical cattle, 60 mg/day/cow), the CH4 production result was “did not lower CH4 production”. Further, the “decrease of CH4 production” value in the data set on rumen methanogens (tropical cattle, 250 mg/day/cow, DM intake lowered) is “about 30%”. For the same molecule, the CH4 suppression entry in data set [1] (10-15 ppm) is listed as “no CH4 suppression was observed”. Besides, in data set [1] (fed at 24-35 mg/kg diet), the “lowering of CH4 production (g/kg DM intake)” value is reported as “up to 10%”.

On to `O=C(O)/C=C/c1ccc(O)cc1` [p-coumaric acid], for which the “Addition amount” value in data set [1] (12 mM) is on record as “p-coumaric acid; 28.33%”.

Consider `Oc1ccc(C=Cc2cc(O)cc(O)c2)cc1` [resveratrol], for which the “Addition amount” value in data set [1] (25 mg, high-concentrate diets) was “high-concentrate diets; 41%”; in data set [1] (25 mg, high-forage diets) it was 25 mg, high-forage diets; 60%;.

B1: ARK001: mRNA: SP + WP_004031278.1 (Methanobacterium formicicum) + TM/C; SEQ ID NO: 16676 (nucleic acid)
chain: ATGTTCGTGTTCCTCGTGCTCCTGCCCCTCGTCTCCAGCCAGTGCGTGTACCTCATGACACTGAGCCTGCCAGGGTTCGCACATCCCTTCGCACTCCCCCCCTGGTACATCTGGCTGGGCTTCATCGCAGGACTGATCGCCATCGTCATGGTCACCATAATGCTCTGTTGCATGACCTCCTGCTGTAGCTGCCTGAAAGGCTGTTGCAGCTGCGGGAGCTGCTGCAAATTCGACGAAGACGATAGCGAACCTGTGCTCAAAGGGGTGAAGTTGCATTACACATAGTGA
modifications: listed as DNA
For the molecule B1, in data set [3], the PDI is reported as 0.086 and the Z-avg. turned out to be 78.82 nm·days. For the same molecule, the Encapsulation efficiency in data set [4] is on record as 51%.

B2: ARK012: mRNA: SP + WP_012956721.1 + STOP; SEQ ID NO: 16686 (nucleic acid)
chain: ATGTTCGTGTTCCTCGTGCTCCTGCCCCTCGTCTCCAGCCAGTGCGTGGGGTCCATAGGGGCTGCTTCTATGGAGTTCTGTTTTGATGTTTTCAAGGAACTGAAGGTTCACCATGCTAACGAGAACATCTTTTACTGTCCAATAGCCATCATGAGTGCGCTTGCTATGGTTTATTTGGGTGCAAAAGATTCTACTCGCACTCAGATTAATAAGGTCGTTAGATTCGACAAGCTTCCAGGGTTTGGAGACAGTATTGAGGCCCAATGTGGAACGTCAGTCAACGTCCATTCTTCTCTGCGGGACATTCTCAACCAAATAACGAAGCCAAACGACGTGTATTCCTTCTCACTCGCGTCACGGCTGTATGCTGAAGAAAGGTATCCTATCTTGCCAGAATATCTCCAGTGCGTCAAGGAGTTGTATCGAGGCGGACTGGAACCGATCAACTTTCAGACTGCAGCCGACCAGGCCCGCGAACTGATCAACAGCTGGGTCGAGTCTCAGACCAATGGGATCATACGCAATGTGTTGCAACCGAGTAGTGTCGACTCTCAGACGGCTATGGTCTTGGTGAACGCTATAGTCTTCAAAGGTCTGTGGGAGAAGACCTTCAAGGATGAAGACACACAAGCGATGCCATTCAGAGTCACCGAACAAGAAAGCAAACCCGTCCAAATGATGTACCAAATTGGGCTTTTTCGGGTGGCCTCTATGGCCTCTGAGAAAATGAAAATATTGGAACTGCCCTTCGCCAGCGGCACAATGAGTATGTTGGTCCTTCTTCCAGATGAAGTCTCAGGTCTCGAACAGCTTGAGTCTATCATTAACTTTGAGAAACTCACTGAATGGACTTCTTCCAATGTGATGGAAGAACGAAAAATCAAAGTCTACCTGCCCCGAATGAAGATGGAAGAGAAATATAATTTGACATCAGTTCTGATGGCCATGGGAATCACAGACGTGTTTTCATCCTCTGCGAATCTGTCTGGCATATCTTCCGCAGAATCTCTCAAGATCAGTCAAGCCGTCCACGCGGCCCATGCTGAGATAAATGAGGCGGGCAGAGAGGTGGTGGGGTCCGCCGAAGCTGGAGTCGACGCAGCTTCTGTCAGTGAAGAATTTAGGGCCGATCATCCTTTCCTGTTCTGCATAAAGCACATAGCTACGAACGCTGTGCTTTTCTTTGGCAGATGCGTTTCTCCACCCTGGTACATCTGGCTGGGCTTCATCGCAGGACTGATCGCCATCGTCATGGTCACCATAATGCTCTGTTGCATGACCTCCTGCTGTAGCTGCCTGAAAGGCTGTTGCAGCTGCGGGAGCTGCTGCAAATTCGACGAAGACGATAGCGAACCTGTGCTCAAAGGGGTGAAGTTGCATTACACATAGTGA
modifications: listed as DNA
Take B2: in data set [3], the PDI is 0.100 and the Z-avg. is 78.82 nm·days. Further, the Encapsulation efficiency in data set [4] worked out at 49%.

B3: ARK013: mRNA: SP + mru0143 + STOP; SEQ ID NO: 16687 (nucleic acid)
chain: ATGTTCGTGTTCCTCGTGCTCCTGCCCCTCGTCTCCAGCCAGTGCGTGTACCTCATGACACTCCCCCTGGACGGACTCGGGCACCCCTTCCCCCTGCCATGA
modifications: listed as DNA, chemistry not fully specified
Regarding B3, in data set [3], the PDI came to 0.1841 and the Z-avg. is 78.82 nm·days. In addition, the Encapsulation efficiency in data set [4] is recorded as 60%.
